Measurements from patent publication US20240199558A1, “2,4,6-TRISUBSTITUTED 1,3,5-TRIAZINES AS MODULATORS OF CX3CR1” (ASTRAZENECA AB, priority 2022, published 2024).

Target: CX3CR1 (Homo sapiens (Human), UniProt P49238)
Assay: hCX3CR1 [3H]-AZD8797 competitive binding assay (filter)
Settings: CHO-hCX3CR1 membranes, 2 nM [3H]-AZD8797
Description: hCX3CR1 [^3H]-AZD8797 Competitive Binding Assay (Filter)
CHO-hCX3CR1 membranes (9 μg per well) together with 2 nM [^3H]-AZD8797 and different concentrations of competitor compound were incubated in 25 mM HEPES (pH 7.4), 10 mM MgCl2, 1 mM CaCl2) and 0.5% BSA in a Corning polystyrene flat-bottom 96-well plate. The plate was incubated for 2 h at room temperature before free radioligand was separated from bound by vacuum filtration on to a Multiscreen HTS+HiFlow FB (Millipore) filter plate, using a Biomek FX (Beckman Coulter). The filter plate was washed in ice-cold 25 mM HEPES (pH 7.4), 5 mM MgCl2, 1 mM CaCl2) and 500 mM NaCl and dried at 50° C. for 1 h. Scintillation cocktail, Optiphase Supermix (PerkinElmer) was added to each well and the radioactivity was measured using a MicroBeta Trilux reader (PerkinElmer). The DMSO concentration was held constant at 1%.

Sequence of CX3CR1 (P49238 whole entry): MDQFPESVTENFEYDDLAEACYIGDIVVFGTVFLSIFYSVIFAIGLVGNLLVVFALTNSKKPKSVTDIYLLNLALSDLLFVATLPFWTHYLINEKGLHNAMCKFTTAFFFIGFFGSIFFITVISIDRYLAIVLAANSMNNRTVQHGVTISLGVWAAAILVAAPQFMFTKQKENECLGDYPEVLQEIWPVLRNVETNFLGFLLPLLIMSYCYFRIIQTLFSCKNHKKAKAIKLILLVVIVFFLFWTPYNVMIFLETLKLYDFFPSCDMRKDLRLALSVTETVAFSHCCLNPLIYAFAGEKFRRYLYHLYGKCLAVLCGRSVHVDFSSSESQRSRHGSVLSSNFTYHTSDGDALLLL

Going from `CC(C)C[C@H](CO)Nc1nc(C[C@@H](C)c2cc(F)c(F)c(F)c2)nc(NS(C)(=O)=O)n1` (single isomer, unassigned) [Example 22, N-(4-(((R)-1-Hydroxy-4-methylpentan-2-yl)amino)-6-((R*)-2-(3,4,5-trifluorophenyl)propyl)-1,3,5-triazin-2-yl)methanesulfonamide] to `CC(C)C[C@H](CO)Nc1nc(C[C@H](C)c2cc(F)c(F)c(F)c2)nc(NS(C)(=O)=O)n1` (single isomer, unassigned) [Example 21, N-(4-(((R)-1-Hydroxy-4-methylpentan-2-yl)amino)-6-((S*)-2-(3,4,5-trifluorophenyl)propyl)-1,3,5-triazin-2-yl)methanesulfonamide], the IC50 rises from 257 nM to 6410 nM (25-fold).

First: CC(C)C[C@H](CO)Nc1nc(C[C@@H](C)c2cc(Cl)ccc2F)nc(NS(C)(=O)=O)n1 (single isomer, unassigned) [Example 30, N-(4-((R*)-2-(5-Chloro-2-fluorophenyl)propyl)-6-(((R)-1-hydroxy-4-methylpentan-2-yl)amino)-1,3,5-triazin-2-yl)methanesulfonamide]
Second: CC(C)C[C@H](CO)Nc1nc(C[C@H](C)c2cc(F)ccc2F)nc(NS(C)(=O)=O)n1 (single isomer, unassigned) [Example 23, N-(4-((S*)-2-(2,5-Difluorophenyl)propyl)-6-(((R)-1-hydroxy-4-methylpentan-2-yl)amino)-1,3,5-triazin-2-yl)methanesulfonamide]
The IC50 of the first is 3.7-fold lower: 148 nM for the first, 548 nM for the second.

Going from `CC(C)C[C@H](CO)Nc1nc(CC(C)c2ccc(CCN3CCOCC3)cc2)nc(NS(C)(=O)=O)n1` (stereo partly drawn) [Example 138, N-(4-(((R)-1-Hydroxy-4-methylpentan-2-yl)amino)-6-(2-(4-(2-morpholinoethyl)phenyl)propyl)-1,3,5-triazin-2-yl)methanesulfonamide] to `CC(C)C[C@H](CO)Nc1nc(CC(C)c2ccc(C(=O)N3CCOCC3)cc2)nc(NS(C)(=O)=O)n1` (stereo partly drawn) [Example 156, N-(4-(((R)-1-Hydroxy-4-methylpentan-2-yl)amino)-6-(2-(4-(morpholine-4-carbonyl)phenyl)propyl)-1,3,5-triazin-2-yl)methanesulfonamide], the IC50 rises from 119 nM to 1960 nM (16-fold). The first is the more potent here.

`CC(C)C[C@H](CO)Nc1nc(CC(C)c2ccc3ocnc3c2)nc(NS(C)(=O)=O)n1` (stereo partly drawn) [Example 62, N-(4-(2-(Benzo[d]oxazol-5-yl)propyl)-6-(((R)-1-hydroxy-4-methylpentan-2-yl)amino)-1,3,5-triazin-2-yl)methanesulfonamide] and `Cc1ccc(C(C)Cc2nc(N[C@@H](CO)CC(C)C)nc(NS(C)(=O)=O)n2)cc1F` (stereo partly drawn) [Example 56, N-(4-(2-(3-Fluoro-4-methylphenyl)propyl)-6-(((R)-1-hydroxy-4-methylpentan-2-yl)amino)-1,3,5-triazin-2-yl)methanesulfonamide] are within 1.5-fold of each other in IC50: 140 nM for the first, 204 nM for the second.

Going from `COc1ccc([C@@H](C)Cc2nc(N[C@@H](CO)CC(C)C)nc(NS(C)(=O)=O)n2)c(F)n1` (single isomer, unassigned) [Example 86, N-(4-((S*)-2-(2-Fluoro-6-methoxypyridin-3-yl)propyl)-6-(((R)-1-hydroxy-4-methylpentan-2-yl)amino)-1,3,5-triazin-2-yl)methanesulfonamide] to `Cc1ccc(F)c(C(C)Cc2nc(N[C@@H](CO)CC(C)C)nc(NS(C)(=O)=O)n2)n1` (stereo partly drawn) [Example 155, N-(4-(2-(3-Fluoro-6-methylpyridin-2-yl)propyl)-6-(((R)-1-hydroxy-4-methylpentan-2-yl)amino)-1,3,5-triazin-2-yl)methanesulfonamide], the IC50 rises from 73 nM to 1550 nM (21-fold).

Compared with `CC(C)C[C@H](CO)Nc1nc(C[C@H](C)c2cc(F)c(F)cc2F)nc(NS(C)(=O)=O)n1` (single isomer, unassigned) [Example 35, N-(4-(((R)-1-Hydroxy-4-methylpentan-2-yl)amino)-6-((S*)-2-(2,4,5-trifluorophenyl)propyl)-1,3,5-triazin-2-yl)methanesulfonamide], `CC(C)C[C@H](CO)Nc1nc(C[C@@H](C)c2cc(F)c(F)cc2F)nc(NS(C)(=O)=O)n1` (single isomer, unassigned) [Example 36, N-(4-(((R)-1-Hydroxy-4-methylpentan-2-yl)amino)-6-((R*)-2-(2,4,5-trifluorophenyl)propyl)-1,3,5-triazin-2-yl)methanesulfonamide] is 5-fold lower in IC50: 2530 nM for the first, 504 nM for the second.

Compared with `CC(C)C[C@H](CO)Nc1nc(C[C@H](C)c2ccc(Cl)cc2)nc(NS(C)(=O)=O)n1` (single isomer, unassigned) [Example 171, N-(4-((R*)-2-(4-Chlorophenyl)propyl)-6-(((R)-1-hydroxy-4-methylpentan-2-yl)amino)-1,3,5-triazin-2-yl)methanesulfonamide], `CC(C)C[C@H](CO)Nc1nc(CC(C)c2ccc(C#N)cc2)nc(NS(C)(=O)=O)n1` (single isomer, unassigned) [Example 165, N-(4-((R*)-2-(4-Cyanophenyl)propyl)-6-(((R)-1-hydroxy-4-methylpentan-2-yl)amino)-1,3,5-triazin-2-yl)methanesulfonamide] is 2.7-fold lower in IC50: 771 nM for the first, 283 nM for the second.

`CCOc1ccc(C(C)Cc2nc(N[C@@H](CO)CC(C)C)nc(NS(C)(=O)=O)n2)cn1` (stereo partly drawn) [Example 167, N-(4-(2-(6-Ethoxypyridin-3-yl)propyl)-6-(((R)-1-hydroxy-4-methylpentan-2-yl)amino)-1,3,5-triazin-2-yl)methanesulfonamide] and `CC(C)C[C@H](CO)Nc1nc(CC(C)c2ccc(OC(C)C)nc2)nc(NS(C)(=O)=O)n1` (stereo partly drawn) [Example 159, N-(4-(((R)-1-Hydroxy-4-methylpentan-2-yl)amino)-6-(2-(6-isopropoxypyridin-3-yl)propyl)-1,3,5-triazin-2-yl)methanesulfonamide] are within 1.5-fold of each other in IC50: 310 nM for the first, 264 nM for the second.

Going from `CC(C)C[C@H](CO)Nc1nc(C[C@H](C)c2ccc(N)nc2)nc(NS(C)(=O)=O)n1` (single isomer, unassigned) [Example 50, N-(4-((S*)-2-(6-Aminopyridin-3-yl)propyl)-6-(((R)-1-hydroxy-4-methylpentan-2-yl)amino)-1,3,5-triazin-2-yl)methanesulfonamide] to `CC(C)C[C@H](CO)Nc1nc(C[C@@H](C)c2ccnc(F)c2)nc(NS(C)(=O)=O)n1` (single isomer, unassigned) [Example 91, N-(4-((R*)-2-(2-Fluoropyridin-4-yl)propyl)-6-(((R)-1-hydroxy-4-methylpentan-2-yl)amino)-1,3,5-triazin-2-yl)methanesulfonamide], the IC50 falls from 342 nM to 34 nM (10-fold). The second is the more potent here.

`CC(C)C[C@H](CO)Nc1nc(CC(C)c2cccc(C3COC3)c2)nc(NS(C)(=O)=O)n1` (stereo partly drawn) [Example 105, N-(4-(((R)-1-Hydroxy-4-methylpentan-2-yl)amino)-6-(2-(3-(oxetan-3-yl)phenyl)propyl)-1,3,5-triazin-2-yl)methanesulfonamide] and `Cc1cc(C(C)Cc2nc(N[C@@H](CO)CC(C)C)nc(NS(C)(=O)=O)n2)ccn1` (stereo partly drawn) [Example 94, N-(4-(((R)-1-Hydroxy-4-methylpentan-2-yl)amino)-6-(2-(2-methylpyridin-4-yl)propyl)-1,3,5-triazin-2-yl)methanesulfonamide] are within 1.5-fold of each other in IC50: 123 nM for the first, 102 nM for the second.

First: CC(C)C[C@H](CO)Nc1nc(CC(C)c2cnc3c(c2)OCC(=O)N3C)nc(NS(C)(=O)=O)n1 (stereo partly drawn) [Example 125, N-(4-(((R)-1-Hydroxy-4-methylpentan-2-yl)amino)-6-(2-(4-methyl-3-oxo-3,4-dihydro-2H-pyrido[3,2-b][1,4]oxazin-7-yl)propyl)-1,3,5-triazin-2-yl)methanesulfonamide]
Second: COc1ccc(C(C)Cc2nc(N[C@@H](CO)CC(C)C)nc(NS(C)(=O)=O)n2)cc1OC (stereo partly shown) [Example 96]
The IC50 of the first is 1.8-fold lower: 85 nM for the first, 149 nM for the second. The first is the more potent here.

Compared with `CC(C)C[C@H](CO)Nc1nc(CC(C)c2cccc3c2NC(=O)C3)nc(NS(C)(=O)=O)n1` (stereo partly drawn) [Example 163, N-(4-(((R)-1-Hydroxy-4-methylpentan-2-yl)amino)-6-(2-(2-oxoindolin-7-yl)propyl)-1,3,5-triazin-2-yl)methanesulfonamide], `CC(C)C[C@H](CO)Nc1nc(C[C@H](C)c2c(F)cccc2F)nc(NS(C)(=O)=O)n1` (single isomer, unassigned) [Example 77, N-(4-((S*)-2-(2,6-Difluorophenyl)propyl)-6-(((R)-1-hydroxy-4-methylpentan-2-yl)amino)-1,3,5-triazin-2-yl)methanesulfonamide] is 1.6-fold lower in IC50: 5230 nM for the first, 3250 nM for the second. The second is the more potent here.

Going from `CC(C)C[C@H](CO)Nc1nc(CC(C)c2ccc(N3CCNCC3)cc2)nc(NS(C)(=O)=O)n1` (stereo partly drawn) [Example 54, N-(4-(((R)-1-Hydroxy-4-methylpentan-2-yl)amino)-6-(2-(4-(piperazin-1-yl)phenyl)propyl)-1,3,5-triazin-2-yl)methanesulfonamide] to `CC(C)C[C@H](CO)Nc1nc(CC(C)c2ccc(C#N)cc2)nc(NS(C)(=O)=O)n1` (stereo partly drawn) [Example 68, N-(4-(2-(4-Cyanophenyl)propyl)-6-(((R)-1-hydroxy-4-methylpentan-2-yl)amino)-1,3,5-triazin-2-yl)methanesulfonamide], the IC50 rises from 153 nM to 336 nM (2.2-fold).

Compared with `CC(C)C[C@H](CO)Nc1nc(CC(C)c2ccc(N=S(C)(C)=O)cc2)nc(NS(C)(=O)=O)n1` (stereo partly drawn) [Example 63, N-(4-(2-(4-((Dimethyl(oxo)-λ^6-sulfaneylidene)amino)phenyl)propyl)-6-(((R)-1-hydroxy-4-methylpentan-2-yl)amino)-1,3,5-triazin-2-yl)methanesulfonamide], `CC(C)C[C@H](CO)Nc1nc(CC(C)c2ccc(C#N)cc2)nc(NS(C)(=O)=O)n1` (single isomer, unassigned) [Example 164, N-(4-((S*)-2-(4-Cyanophenyl)propyl)-6-(((R)-1-hydroxy-4-methylpentan-2-yl)amino)-1,3,5-triazin-2-yl)methanesulfonamide] is 13-fold higher in IC50: 114 nM for the first, 1500 nM for the second. The first is the more potent here.
